The text below walks through data of patent US20040102423A1, “Spironolactone and angiotensin II antagonist combination therapy for treatment of congestive heart failure” (G.D. Searle & Co., priority 1995, published 2004).

In test [1] the target is angiotensin II AT1 receptor. The test can be described thus: Assay A: Angiotensin II binding activity, rat uterine membrane preparation, 125I-AII displacement.
Test [2] relates to rabbit aortic rings. The test can be described thus: Assay B: In vitro vascular smooth muscle response for AII (antagonist activity, pA2). Conditions: for Kb: Oryctolagus cuniculus, two values in a cell = two determinations. In kind it is cell-based. Here is the method:
Assay B: In Vitro Vascular Smooth Muscle-Response for AII
The compounds of the invention were tested for antagonist activity in rabbit aortic rings. Male New Zealand white rabbits (2-2.5 kg) were sacrificed using an overdose of pentobarbital and exsanguinated via the carotid arteries. The thoracic aorta was removed, cleaned of adherent fat and connective tissue and then cut into 3-mm ring segments. The endothelium was removed from the rings by gently sliding a rolled-up piece of filter paper into the vessel lumen. The rings were then mounted in a water-jacketed tissue bath, maintained at 37° C., between moveable and fixed ends of a stainless steel wire with the moveable end attached to an FT03 Grass transducer coupled to a Model 7D Grass Polygraph for recording isometric force responses. The bath was filled with 20 ml of oxygenated (95% oxygen/5% carbon dioxide) Krebs solution of the following composition (mM): 130 NaCl, 15 NaHCO3, […], 1.2 NaH2PO4, 1.2 MgSO4, 2.5 CaCl2, and 11.4 glucose. The preparations were equilibrated for one hour before approximately one gram of passive tension was placed on the rings. Angiotensin II concentration-response curves were then recorded (3×10^−10 to 1×10^−5 M). Each concentration of AII was allowed to elicit its maximal contraction, and then AII was washed out repeatedly for 30 minutes before rechallenging with a higher concentration of AII. Aorta rings were exposed to the test antagonist at 10^−5 M for 5 minutes before challenging with AII. Adjacent segments of the same aorta ring were used for all concentration-response curves in the presence or absence of the test antagonist. The effectiveness of the test compound was expressed in terms of pA2 values and were calculated according to H. O. Schild [Br. J. Pharmacol. Chemother., 2, 189-206 (1947)]. The pA2 value is […] which increases the EC50 value for AII by a factor of two. Each test antagonist was evaluated in aorta rings from two rabbits.

Turning to `CCCCCCCCc1nc(CCCC)nn1Cc1ccc(-c2ccccc2-c2nnn[nH]2)cc1` [Compound 39], the IC50 in test [1] was 10 nM. The compound further gave a Kb in test [2] of 13.2 nM.

As to `CCCCc1nc(CNC(=O)OC(C)(C)C)n(Cc2ccc(-c3ccccc3-c3nnn[nH]3)cc2)n1` [Compound 45], in test [1], the IC50 came out at 4.4 nM. Besides, in test [2], the Kb is 3.89 nM.

For `CCCCc1nc(CNC(=O)OC(C)(C)C)nn1Cc1ccc(-c2ccccc2-c2nnn[nH]2)cc1` [Compound 46], the IC50 in test [1] was 110 nM. This compound had a Kb in test [2] of 158 nM.

Compound `CCCCc1nc(CN)n(Cc2ccc(-c3ccccc3-c3nnn[nH]3)cc2)n1` [Compound 47] gave an IC50 in test [1] of 21 nM. The Kb in test [2] was 14.1 nM.

As for `CCCCc1nc(CC(OCC)OCC)nn1Cc1ccc(-c2ccccc2-c2nnn[nH]2)cc1` [Compound 49], the IC50 in test [1] is 120 nM. The Kb in test [2] was 87.1 nM.

As for `CCCCc1nc(CC)nn1Cc1ccc(-c2ccccc2-c2nnn[nH]2)cc1` [Compound 50], the IC50 in test [1] was found to be 54 nM. In addition, the Kb in test [2] was 19.5 nM.

Take `CCCCc1nc(CC)n(Cc2ccc(-c3ccccc3-c3nnn[nH]3)cc2)n1` [Compound 51]: in test [1], the IC50 was 8.7 nM. The same compound had a Kb in test [2] of 4.07 nM.

In test [1], `CCCCc1nc(CNC(=O)CCC(NC(C)=O)C(=O)OC(C)(C)C)nn1Cc1ccc(-c2ccccc2-c2nnn[nH]2)cc1` (centres unmarked) [Compound 52] showed an IC50 of 100 nM. The compound further had a Kb in test [2] of 7.24 nM.

Compound `CCCCc1nc(CCC2CCCCC2)n(Cc2ccc(-c3ccccc3-c3nnn[nH]3)cc2)n1` [Compound 53] yielded an IC50 in test [1] of 65 nM. Moreover, the Kb in test [2] is 27.5 nM.

As to `CCCCc1nc(CCC2CCCCC2)nn1Cc1ccc(-c2ccccc2-c2nnn[nH]2)cc1` [Compound 54], in test [1], the concentration for half-maximal inhibition (IC50) amounted to 3100 nM. The Kb in test [2] is 955 nM.

The compound `CCCCc1nc(CCCO)n(Cc2ccc(-c3ccccc3-c3nnn[nH]3)cc2)n1` [Compound 57] yielded an IC50 in test [1] of 2300 nM. Also, the Kb in test [2] is 1000 nM.

Compound `CCCCc1nc(C(F)F)nn1Cc1ccc(-c2ccccc2-c2nnn[nH]2)cc1` [Compound 58] gave an IC50 in test [1] of 140 nM. The compound also gave a Kb in test [2] of 355 nM.

Take `CCCCc1nc(C(F)(F)Cc2ccccc2)nn1Cc1ccc(-c2ccccc2-c2nnn[nH]2)cc1` [Compound 62]: the IC50 in test [1] turned out to be 26 nM. This compound showed a Kb in test [2] of 2.04 nM.

Regarding `CCCCc1nc(C(=O)O)nn1Cc1ccc(-c2ccccc2-c2nnn[nH]2)cc1` [Compound 63], the IC50 in test [1] worked out at 61 nM. Moreover, in test [2], the Kb was 17 nM.

In turn, `CCCCc1ncnn1Cc1ccc(-c2ccccc2-c2nnn[nH]2)cc1` [Compound 64] gave an IC50 in test [1] of 54 nM. Also, the Kb in test [2] is 100 nM.

In test [1], `CCCCc1ncn(Cc2ccc(-c3ccccc3-c3nnn[nH]3)cc2)n1` [Compound 65] gave an IC50 of 23 nM. In test [2], this compound showed a Kb of 14.1 nM.

`CCCCc1nc(C23CC4CC(CC(C4)C2)C3)nn1Cc1ccc(-c2ccccc2-c2nnn[nH]2)cc1` [Compound 67] registered an IC50 in test [1] of 3100 nM. This compound had a Kb in test [2] of 1320 nM.

In test [1], `CCCCc1nc(CF)n(Cc2ccc(-c3ccccc3-c3nnn[nH]3)cc2)n1` [Compound 71] yielded an IC50 of 12000 nM. In addition, in test [2], the “Assay B pA2 (result given as symbol)” value was “* (Antagonist Activity not observed up to 10 μM of test compound.)”.

Take `CCCCc1nc(CC23CC4CC(CC(C4)C2)C3)n(Cc2ccc(-c3ccccc3-c3nnn[nH]3)cc2)n1` [Compound 72]: the IC50 in test [1] came out at 83 nM. The compound also gave a Kb in test [2] of 776 nM.

As to `CCCCc1nc(CC23CC4CC(CC(C4)C2)C3)nn1Cc1ccc(-c2ccccc2-c2nnn[nH]2)cc1` [Compound 73], the IC50 in test [1] amounted to 790 nM. Moreover, the Kb in test [2] was 22.4 nM.

`CCCCc1nc(CCC(=O)O)nn1Cc1ccc(-c2ccccc2-c2nnn[nH]2)cc1` [Compound 74] showed an IC50 in test [1] of 6.5 nM. This compound also gave a Kb in test [2] of 2.75 nM.

On to `CCCCc1nc(C2CCCCC2)n(Cc2ccc(-c3ccccc3-c3nnn[nH]3)cc2)n1` [Compound 76], for which the IC50 in test [1] was 5400 nM. Besides, in test [2], the Kb is 3020 nM.

The term IC50 denotes the point on the concentration scale where inhibition reaches its midpoint. A low value points to inhibition by little substance. By Kb is commonly meant the affinity of an antagonist, worked out from how it opposes an agonist. A high value points to a less potent antagonist.
